Assay results published in patent US20230184746A1, “HIGH-SENSITIVITY DETECTION OF GPCR ACTIVITY AND USES THEREOF” (Firmenich Incorporated, priority 2020, published 2023).
“Also recorded” adds a separate entry of the source.

Key:
Format in all cases: cell-based
[1] = target: T1, human sweet taste receptor (hT1R2/hT1R3) (Homo sapiens, UniProt Q7RTX0+Q8TE23, C757R/I191V/I486V/R317G); assay: Bias plotting analysis: DMR assay with R2/R3 U2OS cells vs FLIPR-calcium mobilization assay with R2/R3 U2OS cells expressing Gα15; conditions: equimolar concentrations; data normalized to 1 mM sucralose; relative to other sweeteners
T1 construct: expressed in transfected cells
T1 sequence (Q8TE23 20-839 I191V/R317G/I486V): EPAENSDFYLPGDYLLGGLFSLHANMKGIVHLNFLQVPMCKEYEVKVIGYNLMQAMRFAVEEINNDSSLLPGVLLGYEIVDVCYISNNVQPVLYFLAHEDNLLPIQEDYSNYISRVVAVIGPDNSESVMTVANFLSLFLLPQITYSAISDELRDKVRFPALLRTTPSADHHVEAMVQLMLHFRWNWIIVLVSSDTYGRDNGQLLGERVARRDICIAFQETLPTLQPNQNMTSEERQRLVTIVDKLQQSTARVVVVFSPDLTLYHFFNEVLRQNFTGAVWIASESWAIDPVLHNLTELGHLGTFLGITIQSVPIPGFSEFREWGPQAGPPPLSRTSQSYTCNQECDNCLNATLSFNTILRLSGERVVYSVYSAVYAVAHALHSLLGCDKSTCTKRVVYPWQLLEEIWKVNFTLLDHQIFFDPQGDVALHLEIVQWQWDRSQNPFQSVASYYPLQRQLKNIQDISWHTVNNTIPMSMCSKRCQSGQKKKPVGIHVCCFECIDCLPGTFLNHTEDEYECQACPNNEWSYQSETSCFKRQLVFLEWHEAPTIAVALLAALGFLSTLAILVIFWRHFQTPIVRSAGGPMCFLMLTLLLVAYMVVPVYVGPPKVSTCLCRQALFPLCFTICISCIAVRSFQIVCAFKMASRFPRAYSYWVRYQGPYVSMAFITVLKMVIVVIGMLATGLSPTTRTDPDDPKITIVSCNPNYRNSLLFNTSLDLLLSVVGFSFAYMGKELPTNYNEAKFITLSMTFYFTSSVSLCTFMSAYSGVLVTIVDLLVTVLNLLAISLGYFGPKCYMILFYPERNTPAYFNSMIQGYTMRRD
T1 sequence (Q7RTX0 21-852 C757R): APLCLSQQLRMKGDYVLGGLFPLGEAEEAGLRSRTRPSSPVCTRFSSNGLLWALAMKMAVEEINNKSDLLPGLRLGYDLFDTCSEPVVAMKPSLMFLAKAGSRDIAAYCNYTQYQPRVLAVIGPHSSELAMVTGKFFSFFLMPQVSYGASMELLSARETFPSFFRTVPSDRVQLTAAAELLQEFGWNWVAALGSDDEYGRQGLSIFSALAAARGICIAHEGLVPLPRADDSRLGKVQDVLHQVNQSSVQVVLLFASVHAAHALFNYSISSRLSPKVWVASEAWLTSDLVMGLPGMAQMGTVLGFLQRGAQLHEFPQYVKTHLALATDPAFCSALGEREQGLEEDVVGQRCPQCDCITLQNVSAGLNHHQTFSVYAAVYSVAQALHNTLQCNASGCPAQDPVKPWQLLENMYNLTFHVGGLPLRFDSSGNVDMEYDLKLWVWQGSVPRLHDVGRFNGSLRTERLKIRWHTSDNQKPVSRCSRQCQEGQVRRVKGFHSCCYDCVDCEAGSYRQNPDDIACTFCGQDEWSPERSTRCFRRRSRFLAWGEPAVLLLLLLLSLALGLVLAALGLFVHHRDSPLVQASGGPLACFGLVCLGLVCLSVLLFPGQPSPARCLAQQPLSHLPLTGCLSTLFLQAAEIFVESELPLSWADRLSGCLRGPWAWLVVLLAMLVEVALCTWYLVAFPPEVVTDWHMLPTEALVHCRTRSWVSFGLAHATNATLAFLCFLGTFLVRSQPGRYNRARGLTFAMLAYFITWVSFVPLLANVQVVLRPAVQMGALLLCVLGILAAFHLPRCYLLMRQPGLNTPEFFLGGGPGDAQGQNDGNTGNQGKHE
Protocol: (§1) Untransfected U2OS cells were cultured at 37° C. and 5% CO2 in McCoy's 5A medium (modified, GIBCO#16600) supplemented with 10% fetal bovine serum and penicillin/streptomycin. Plasmids encoding hT1R2 in pEAK10-puromycin and hT1R3 in pcDNA3.1-zeocin were linearized and transfected into U2OS cells followed by dilution and double selection in growth medium plus 0.5 μg/m1puromycin and 100 μg/mlzeocin. Individual colonies were expanded and transiently transfected with a Gα6gust25 expression construct to identify functional clones using sucralose as the agonist in a Ca2+ imaging assay. […] The lidded Epic® 384 microplate and polypropylene compound plate (Corning) were loaded into the carousel of the Epic® reader, the target plate was washed with DMSO matched D-PBS using the Corning Epic® Liquid Handling Accessory (LHA) and equilibrated in 25 μL of DMSO matched D-PBS for 90 minutes. After recording the baseline activity for 5 to 8 minutes, 25 μL of 2× concentrated solution of sweetener, agonist or a mixture of agonist and modulator, diluted in D-PBS, was added using the LHA and the DMR responses which measures a shift in the resonance wavelength, were monitored for an additional 30 minutes. […]
(§2) In FIG. 2A known sweeteners and new agonists were evaluated in the DMR assay with R2/R3 U2OS cells using a dose-response analysis. […]

[2] = target: T1, human sweet taste receptor (hT1R2/hT1R3); assay: DMR assay (Epic reader) with R2/R3 U2OS cells; conditions: increasing concentrations, no overexpressed G protein
Protocol: as §1, §2

parental U2OS cells = assay: DMR assay (Epic reader) with parental U2OS cells; conditions: parental (untransfected) U2OS cells, increasing concentrations
Protocol: as §1, with “assay. […] (R2/R3 U2OS cells) were seeded on Epic®384 microplates (Corning) at a density of 16,000 cells/well in 40 pt of assay media using a multidrop (Thermo Scientific).” for “assay.”

DMR signal (shift in resonance wavelength) [2]	Compound	Bias between FLIPR assay and DMR (EPIC) assay [1]	DMR signal (shift in resonance wavelength) (parental U2OS cells)
	COC(=O)[C@H](Cc1ccccc1)NC(=O)[C@H](CC(=O)O)NCCC(C)(C)C [Neotame]	more active in the FLIPR assay; also recorded: clear bias for the FLIPR assay	
	CCCOc1ccc([N+](=O)[O-])cc1N [P-4000]	more active in the FLIPR assay; also recorded: clear bias for the FLIPR assay	
positive DMR signal	OC[C@H]1O[C@H](O[C@]2(CCl)O[C@H](CCl)[C@@H](O)[C@@H]2O)[C@H](O)[C@@H](O)[C@H]1Cl [sucralose]		does not cause a comparable positive DMR signal
